Source: publication PMC12067438 (Journal of Medicinal Chemistry, 2025)

How the values were obtained:
[1] = test system: global proteome of H1792 SMARCA4-WT cell line; assay: Quantitative TMT mass spectrometry of global proteome; assay type: cell-based, human; conditions: 100 nM YDR1 48 h, 20 nM YD54 24 h
YAP1 = YAP1 phosphorylation immunoblot in H322 cells; assay type: cell-based, human; conditions: H322 SMARCA4 mutant cells, 96 h; 1 µM YDR1, 0.1 µM YD54
[2] = Mouse liver microsomal stability assay; assay type: in vitro ADME; conditions: for remaining (T = 60 min): mouse microsomal assay, with NADPH; for CLint scaled at 1 h / half-life at 1 h / microsomal CLint at 1 h: mouse, liver microsomes
[3] = Human liver microsomal stability assay; assay type: in vitro ADME; conditions: for remaining (T = 60 min): with NADPH
[4] = Plasma pharmacokinetics after single oral or intraperitoneal dose; assay type: in vivo, mouse; conditions: for Oral bioavailability (in words): 25 mg/kg oral, mice
[5] = test system: H2023 xenograft model (SMARCA4 mutant); assay: H2023 xenograft antitumor efficacy; assay type: in vivo, mouse; conditions: 5 mg/kg once daily, 19 days
[6] = test system: HCC515 xenograft model (SMARCA4 mutant); assay: HCC515 xenograft antitumor efficacy; assay type: in vivo, mouse; conditions: 5 mg/kg once daily, 19 days, 1% Tween 80 formulation
[7] = test system: H2030 xenograft model (SMARCA4 mutant); assay: H2030 xenograft antitumor efficacy; assay type: in vivo, mouse; conditions: 5 mg/kg once daily, 17 days, 1% Tween 80 formulation
SMARCA4 = SMARCA4 (Mus musculus, UniProt Q3TKT4); assay: PK/PD study: SMARCA4 in spleen by Western blot; assay type: in vivo; conditions: C57BL/6 and Crbn I391V mice, compared to SMARCA2
SMARCA4, sequence (Q3TKT4 whole entry): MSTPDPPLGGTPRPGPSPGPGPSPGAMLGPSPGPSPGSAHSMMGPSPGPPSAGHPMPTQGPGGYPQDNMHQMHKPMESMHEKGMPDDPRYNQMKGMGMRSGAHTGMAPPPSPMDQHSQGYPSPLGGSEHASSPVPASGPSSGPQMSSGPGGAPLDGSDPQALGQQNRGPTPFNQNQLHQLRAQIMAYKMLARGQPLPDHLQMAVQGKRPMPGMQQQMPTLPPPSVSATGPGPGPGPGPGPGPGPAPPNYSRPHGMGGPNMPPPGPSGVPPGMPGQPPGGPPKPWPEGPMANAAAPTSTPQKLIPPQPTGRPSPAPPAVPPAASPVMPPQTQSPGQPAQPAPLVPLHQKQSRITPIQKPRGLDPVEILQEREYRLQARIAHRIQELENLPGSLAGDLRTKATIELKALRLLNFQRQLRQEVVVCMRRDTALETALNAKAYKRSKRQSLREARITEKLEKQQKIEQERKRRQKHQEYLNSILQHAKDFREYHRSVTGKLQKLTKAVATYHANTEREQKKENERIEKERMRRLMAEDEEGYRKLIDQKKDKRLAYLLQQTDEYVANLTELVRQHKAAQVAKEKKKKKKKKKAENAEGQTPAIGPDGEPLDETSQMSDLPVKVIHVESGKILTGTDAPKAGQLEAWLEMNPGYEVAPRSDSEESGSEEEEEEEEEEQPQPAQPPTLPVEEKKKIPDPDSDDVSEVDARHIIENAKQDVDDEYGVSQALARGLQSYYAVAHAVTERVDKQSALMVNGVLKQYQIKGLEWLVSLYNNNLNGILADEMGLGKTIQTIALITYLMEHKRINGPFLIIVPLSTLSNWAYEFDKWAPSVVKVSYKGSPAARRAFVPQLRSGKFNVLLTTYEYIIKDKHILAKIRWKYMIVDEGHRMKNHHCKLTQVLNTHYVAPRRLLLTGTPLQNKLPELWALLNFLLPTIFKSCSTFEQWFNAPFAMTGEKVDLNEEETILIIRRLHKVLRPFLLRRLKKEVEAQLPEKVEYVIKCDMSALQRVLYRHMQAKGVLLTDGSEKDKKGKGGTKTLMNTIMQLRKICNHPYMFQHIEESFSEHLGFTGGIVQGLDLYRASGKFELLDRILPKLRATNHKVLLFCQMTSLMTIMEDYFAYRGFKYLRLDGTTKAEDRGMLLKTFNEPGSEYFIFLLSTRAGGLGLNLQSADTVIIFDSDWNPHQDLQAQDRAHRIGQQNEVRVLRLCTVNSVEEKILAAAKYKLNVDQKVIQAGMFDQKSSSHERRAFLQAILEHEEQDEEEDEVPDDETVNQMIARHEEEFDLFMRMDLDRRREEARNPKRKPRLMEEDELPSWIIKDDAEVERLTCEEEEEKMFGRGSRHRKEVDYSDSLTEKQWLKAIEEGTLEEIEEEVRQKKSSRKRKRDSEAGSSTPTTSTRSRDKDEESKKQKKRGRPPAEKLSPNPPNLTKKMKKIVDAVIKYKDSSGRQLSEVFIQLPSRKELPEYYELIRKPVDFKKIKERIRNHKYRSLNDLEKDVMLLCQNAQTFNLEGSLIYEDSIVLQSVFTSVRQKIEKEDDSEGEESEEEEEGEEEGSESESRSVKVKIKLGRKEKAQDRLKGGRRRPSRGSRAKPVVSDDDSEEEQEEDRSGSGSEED

SMARCA2 = SMARCA2 (Homo sapiens, UniProt P51531); assay: SMARCA2 protein levels in xenograft tumors by Western blot; assay type: in vivo; conditions: H1568 xenograft efficacy study, 40 mg/kg once daily, 13 days
SMARCA2, sequence (P51531 whole entry): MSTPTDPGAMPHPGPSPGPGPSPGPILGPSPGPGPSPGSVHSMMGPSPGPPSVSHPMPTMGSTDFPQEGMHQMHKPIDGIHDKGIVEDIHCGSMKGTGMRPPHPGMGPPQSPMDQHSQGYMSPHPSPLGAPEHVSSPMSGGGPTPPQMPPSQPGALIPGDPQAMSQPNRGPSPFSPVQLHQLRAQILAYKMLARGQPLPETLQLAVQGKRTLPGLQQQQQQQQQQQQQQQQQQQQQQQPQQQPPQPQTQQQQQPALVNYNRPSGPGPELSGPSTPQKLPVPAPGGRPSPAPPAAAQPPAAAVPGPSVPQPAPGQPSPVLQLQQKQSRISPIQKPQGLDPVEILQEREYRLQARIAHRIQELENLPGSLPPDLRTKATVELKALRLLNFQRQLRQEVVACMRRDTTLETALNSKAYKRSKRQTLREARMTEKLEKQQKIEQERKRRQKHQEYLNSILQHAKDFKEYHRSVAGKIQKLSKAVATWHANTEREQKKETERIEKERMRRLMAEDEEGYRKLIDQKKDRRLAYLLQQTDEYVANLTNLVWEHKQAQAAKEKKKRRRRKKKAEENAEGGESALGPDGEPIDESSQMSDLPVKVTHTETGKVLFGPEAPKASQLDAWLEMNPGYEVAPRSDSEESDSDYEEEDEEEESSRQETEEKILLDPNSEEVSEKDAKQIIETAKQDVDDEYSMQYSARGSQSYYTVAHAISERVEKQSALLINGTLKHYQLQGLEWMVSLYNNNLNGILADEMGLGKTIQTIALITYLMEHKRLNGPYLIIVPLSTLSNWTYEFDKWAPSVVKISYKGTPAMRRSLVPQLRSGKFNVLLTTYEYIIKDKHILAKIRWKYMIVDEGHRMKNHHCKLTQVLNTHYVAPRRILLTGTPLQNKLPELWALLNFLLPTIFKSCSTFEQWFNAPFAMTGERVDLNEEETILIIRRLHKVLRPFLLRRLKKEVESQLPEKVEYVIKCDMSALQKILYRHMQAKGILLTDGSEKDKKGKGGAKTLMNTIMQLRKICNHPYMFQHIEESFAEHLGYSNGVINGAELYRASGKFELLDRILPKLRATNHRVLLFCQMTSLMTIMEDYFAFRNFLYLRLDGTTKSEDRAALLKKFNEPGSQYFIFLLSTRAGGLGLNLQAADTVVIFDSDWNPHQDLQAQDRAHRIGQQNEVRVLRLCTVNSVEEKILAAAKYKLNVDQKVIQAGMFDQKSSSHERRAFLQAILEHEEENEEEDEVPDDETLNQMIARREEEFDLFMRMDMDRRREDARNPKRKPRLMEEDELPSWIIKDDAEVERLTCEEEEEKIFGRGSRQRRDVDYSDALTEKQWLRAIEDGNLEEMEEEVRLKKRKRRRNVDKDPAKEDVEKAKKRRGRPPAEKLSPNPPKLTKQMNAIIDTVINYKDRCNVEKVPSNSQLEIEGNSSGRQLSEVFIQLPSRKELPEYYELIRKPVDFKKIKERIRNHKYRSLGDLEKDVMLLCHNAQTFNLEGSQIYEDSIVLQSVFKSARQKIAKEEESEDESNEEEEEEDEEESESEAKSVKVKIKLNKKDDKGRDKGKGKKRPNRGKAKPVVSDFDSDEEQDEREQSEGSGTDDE

[8] = 21-day tolerability in mice; assay type: in vivo, mouse
[9] = test system: H1568 xenograft model (SMARCA4 mutant); assay: H1568 xenograft antitumor efficacy; assay type: in vivo, mouse; conditions: 40 mg/kg once daily, 13 days
ERK = assay: pERK immunoblot in H2030 cells; conditions: sotorasib 0.5 µM, YDR1 or YD54 1.25 µM, 72 hours (YDR1), 48 hours (YD54)

| SMILES | SMARCA4 level in TMT proteomics [1] | Phosphorylation of YAP1 at S109 (YAP1) | Phosphorylation of YAP1 at S127 (YAP1) | remaining (T = 60 min) [2] | CLint scaled at 1 h [2] [mL/min/kg] | half-life at 1 h [2] [min] | microsomal CLint at 1 h [2] [µL/min/mg] | Clearance class in human microsomal assays ([3]; human microsomal assay) | remaining (T = 60 min) ([3]; human microsomal assay) | CLint scaled at 1 h ([3]; human, liver microsomes) [mL/min/kg] | Oral bioavailability (in words) [4] | other results |
| --- | --- | --- | --- | --- | --- | --- | --- | --- | --- | --- | --- | --- |
| Nc1nnc(-c2ccccc2O)cc1N1CCN(Cc2ccc(N3CCN(CCOc4cccc5c4C(=O)N(C4CCC(=O)NC4=O)C5=O)CC3)c(F)c2)CC1 (stereo not drawn) [YD54] | minimally altered | drastic increase | potent increase | 0.414 | 119 | 45.9 | 30.2 | moderate clearance | 0.3234 | 35.8 | orally bioavailable | half-life at 1 h ([3]; human, liver microsomes, T1/2, human microsomal assay): 34.9 min; reduction in body weight compared to controls [5]: < 10%; reduction in body weight compared to controls [6]: < 20%; reduction in body weight compared to controls [7]: < 20% |
| Nc1nnc(-c2ccccc2O)cc1N1CCN(Cc2ccc(N3CCC(CN4CCN(c5ccc6c(c5)C(=O)N(C5CCC(=O)NC5=O)C6=O)CC4)CC3)c(F)c2)CC1 (stereo not drawn) [YDR1] | minimally altered | drastic increase | potent increase | 0.4998 | 91.9 | 59.7 | 23.2 | slow clearance | 0.4743 | 21.5 | robust oral bioavailability | T1/2 ([3]; human microsomal assay): 58.024 min; microsomal CLint at 1 h ([3]; human, liver microsomes): 23.9 µL/min/mg; half-life ([4]; CD-1, mouse, plasma, oral, 25 mg/kg): > 1440 min; degradation of SMARCA4 in spleen (SMARCA4): only modestly degraded; degradation of SMARCA2 in tumors (SMARCA2): about 50%; Body weight and signs of toxicity ([8]; daily treatment up to 80 mg/kg for 21 days): minimal body weight loss and no obvious signs of toxicity or morbidity; Tolerability ([8]; daily treatment with increasing doses up to 80 mg/kg for 21 days): well tolerated; Tolerability in efficacy study [9]: well tolerated with no change in body weight; reduction in body weight compared to controls [9]: < 10% |
| C=CC(=O)N1CCN(c2nc(=O)n(-c3c(C)ccnc3C(C)C)c3nc(-c4c(O)cccc4F)c(F)cc23)[C@@H](C)C1 [sotorasib] | – | – | – | – | – | – | – | – | – | – | – | phosphorylation of ERK (ERK): robustly reduced phosphorylation of ERK |
